Reference: patent US6552080B1, “Fungicidal compounds having a fluorovinyl-or fluoropropenyl-oxyphenyloxime moiety and process for the preparation thereof” (Korea Research Institute of Chemical Technology, priority 1999, dated 2003)
Read-outs that look alike come from different tables or passages of the source.

Assays:
[1] = tested on: Pyricularia oryzae Carvara KA301; assay type: in vivo; conditions: Rice Blast
Botrytis cinerae = experiment: Fungicidal activity against Cucumber Gray Mold Rot (CGM) disease; assay type: in vivo; conditions: Cucumber Gray Mold Rot; concentration 50 ppm
Phytophthora infestans = assay type: in vivo; conditions: Tomato Late Blight
Puccinia recondita = experiment: Fungicidal activity against Wheat Leaf Rust (WLR) disease; assay type: in vivo; conditions: Wheat Leaf Rust
Erysiphae graminis = experiment: Fungicidal activity against Barley Powdery Mildew (BPM) disease; assay type: in vivo; conditions: Barley Powdery Mildew
Rhizoctonia solani AG-1 = experiment: Fungicidal activity against Rice Sheath Blight (RSB) disease; conditions: Rice Sheath Blight
Procedure: To examine fungicidal activity of the compounds of the present invention, each of the compounds listed in Table 3 and 4 was dissolved in 10% acetone to a concentration of 250 ppm, and Tween-20 was added thereto to a concentration of 250 or 500 ppm. 50 ml of the resulting solution was sprayed on leaves of a host plant. The plant was kept at room temperature for 24 hours to let the solvent evaporate, and then, a pathogenic fungus was inoculated thereonto. The plant was held in a humidity chamber for 24 hours, transferred to an plant growth room kept at 20 to 27° C. and a relative humidity of 60 to 80% and kept to induce disease. […] This procedure was repeated twice for each test. 10% Acetone solution containing 250 ppm of Tween-20 was used as a control.
The fungicidal activity of the compound of the present invention is repressed by a control value (C.V.) calculated as; [formula]
Rhizoctonia solani AG-1 was cultured on a PDA medium (potato 200 g, dextrose 20 g, agar 20 g and distilled water 1 ? for 3 days and the agar disc(diameter 0.6 cm) was inoculated and cultured on sterilized wheat bran medium in a 1 L bottle at 26 to 28° C. for 7 days. A mycelial mass was ground using a homogenizer, inoculated uniformly on soil of a pot wherein a Nakdong rice plant having 2 or 3 leaves and an height of 5 cm grew, and kept in humidity polyvinyl chamber for 5 days to induce RSB. L.A. on a leaf sheath was measured to calculate an C.V.

Compound | RCV (Fungicidal Activities, C.V.) ([1]; concentration 2 ppm) [%] | RCV (Fungicidal Activities, C.V.) ([1]; concentration 50 ppm) [%] | CGM (Fungicidal Activities, C.V.) (Botrytis cinerae) [%] | TLB (Fungicidal Activities, C.V.) (Phytophthora infestans; concentration 2 ppm) [%] | TLB (Fungicidal Activities, C.V.) (Phytophthora infestans; concentration 50 ppm) [%] | WLR (Fungicidal Activities, C.V.) (Puccinia recondita; concentration 2 ppm) [%] | WLR (Fungicidal Activities, C.V.) (Puccinia recondita; concentration 50 ppm) [%] | BPM (Fungicidal Activities, C.V.) (Erysiphae graminis; concentration 2 ppm) [%] | BPM (Fungicidal Activities, C.V.) (Erysiphae graminis; concentration 50 ppm) [%] | RSB (Fungicidal Activities, C.V.) (Rhizoctonia solani AG-1; concentration 2 ppm) [%] | RSB (Fungicidal Activities, C.V.) (Rhizoctonia solani AG-1; concentration 50 ppm) [%]
CON=C(C(=O)OC)c1ccccc1CON=C(C)c1cccc(OC(F)=Cc2cccc(OC)c2)c1 [Compound 71] | 100 | 100 | 25 | 25 | 50 | 98 | 100 | 100 | 100 | 35 | 100
CON=C(C(=O)OC)c1ccccc1CON=C(C)c1cccc(OC(F)=Cc2ccc(OC)cc2)c1 [Compound 72] | 100 | 98 | 0 | 0 | 66 | 98 | 100 | 100 | 100 | 25 | 65
CCOc1ccc(C=C(F)Oc2cccc(C(C)=NOCc3ccccc3C(=NOC)C(=O)OC)c2)cc1 [Compound 73] | 100 | 95 | 0 | 0 | 60 | 98 | 100 | 100 | 100 | 25 | 100
CON=C(C(=O)OC)c1ccccc1CON=C(C)c1cccc(OC(F)=Cc2ccc(F)cc2)c1 [Compound 74] | 100 | 100 | 72 | 12 | 56 | 99 | 100 | 100 | 100 | 25 | 100
CON=C(C(=O)OC)c1ccccc1CON=C(C)c1cccc(OC(F)=Cc2cccc(Cl)c2)c1 [Compound 75] | 100 | 100 | 0 | 0 | 66 | 98 | 100 | 100 | 100 | 25 | 100
CON=C(C(=O)OC)c1ccccc1CON=C(C)c1cccc(OC(F)=Cc2ccc(Cl)cc2)c1 [Compound 76] | 100 | 100 | 62 | 0 | 0 | 100 | 100 | 100 | 100 | 35 | 100
